From ChEMBL document CHEMBL1201862, “PubChem BioAssay data set” (2004)
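Interpolation was linear, between the two tested concentrations surrounding the appropriate level; five concentrations were tested over 48 hours in 96-well plates. GI50 = concentration required for 50% inhibition of growth.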 Active and inactive are the calls of the source. Cut-off read from the data, not from the text of the source: active = GI50 up to about 1.1 µM and inactive = higher.

How the values were obtained:
Experiment in all cases: NCI-60 cell line screen, 48 h
COLO 205 = test system: COLO 205
LOX IMVI = test system: LOX IMVI
SK-MEL-28 = test system: SK-MEL-28
RXF 393 = test system: RXF 393
SR = test system: SR
SK-MEL-5 = test system: SK-MEL-5
786-0 = test system: 786-0
U-251 = test system: U-251
A549 = test system: A549
SN12C = test system: SN12C
UO-31 = test system: UO-31
OVCAR-4 = test system: OVCAR-4
T47D = test system: T47D
SF-268 = test system: SF-268
MOLT-4 = test system: MOLT-4
MDA-MB-231 = test system: MDA-MB-231
EKVX = test system: EKVX
OVCAR-8 = test system: OVCAR-8
HOP-62 = test system: HOP-62
SK-OV-3 = test system: SK-OV-3
MDA-MB-435 = test system: MDA-MB-435
RPMI-8226 = test system: RPMI-8226
TK-10 = test system: TK-10
SK-MEL-2 = test system: SK-MEL-2
SNB-19 = test system: SNB-19
IGROV-1 = test system: IGROV-1
KM12 = test system: KM12
HCT-116 = test system: HCT-116
A498 = test system: A498
MDA-N = test system: MDA-N
UACC-257 = test system: UACC-257
MCF7 = test system: MCF7
HCC 2998 = test system: HCC 2998
NCI/ADR-RES = test system: NCI/ADR-RES
HT-29 = test system: HT-29
NCI-H522 = test system: NCI-H522
Malme-3M = test system: Malme-3M
CAKI-1 = test system: CAKI-1
UACC-62 = test system: UACC-62
DU-145 = test system: DU-145
OVCAR-5 = test system: OVCAR-5
PC-3 = test system: PC-3
M14 = test system: M14
K562 = test system: K562
HL-60 = test system: HL-60
SF-295 = test system: SF-295
NCI-H226 = test system: NCI-H226
OVCAR-3 = test system: OVCAR-3
ACHN = test system: ACHN
SW-620 = test system: SW-620
BT-549 = test system: BT-549
HCT-15 = test system: HCT-15
NCI-H23 = test system: NCI-H23

Measured: GI50

NCCCNCCCNCCCN
> 100 µM: HCT-15
inactive: COLO 205 > 100 µM | LOX IMVI > 100 µM | SK-MEL-28 > 100 µM | RXF 393 > 100 µM | SR 18.8 µM | SK-MEL-5 > 100 µM | 786-0 > 100 µM | U-251 > 100 µM | A549 > 100 µM | SN12C > 100 µM | UO-31 > 100 µM | OVCAR-4 > 100 µM | T47D 12.6 µM | SF-268 3.48 µM | MOLT-4 14.9 µM | MDA-MB-231 > 100 µM | EKVX > 100 µM | OVCAR-8 > 100 µM | HOP-62 > 100 µM | SK-OV-3 > 100 µM | MDA-MB-435 > 100 µM | RPMI-8226 16.4 µM | TK-10 > 100 µM | SK-MEL-2 > 100 µM | SNB-19 > 100 µM | IGROV-1 > 100 µM | KM12 > 100 µM | HCT-116 > 100 µM | A498 > 100 µM | MDA-N > 100 µM | UACC-257 > 100 µM | MCF7 > 100 µM | HCC 2998 > 100 µM | NCI/ADR-RES > 100 µM | HT-29 > 100 µM | NCI-H522 54.3 µM | Malme-3M > 100 µM | CAKI-1 > 100 µM | UACC-62 > 100 µM | DU-145 > 100 µM | OVCAR-5 > 100 µM | PC-3 > 100 µM | M14 > 100 µM | K562 25.2 µM | HL-60 > 100 µM | SF-295 > 100 µM | NCI-H226 > 100 µM | OVCAR-3 > 100 µM | ACHN > 100 µM | SW-620 > 100 µM | BT-549 > 100 µM | NCI-H23 > 100 µM
